Data taken from article PMC6934184, “Selective DNA-PKcs inhibition extends the therapeutic index of localized radiotherapy and chemotherapy” (The Journal of Clinical Investigation, 2019).

Target: T1, SRPK2 (Homo sapiens, UniProt P78362)
T1 construct: purchased Thermo Fisher Scientific (Life Technologies) SelectScreen
Assay: SelectScreen Z'LYTE
Type: biochemical
Method in brief: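 SelectScreen broad panel; activity (Z'LYTE, Adapta) plus binding formats. ATP: Km app for CSF1R Z'LYTE; 10 for CAMK1 Adapta. Readout = % per kinase.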

T1 sequence (P78362 whole entry): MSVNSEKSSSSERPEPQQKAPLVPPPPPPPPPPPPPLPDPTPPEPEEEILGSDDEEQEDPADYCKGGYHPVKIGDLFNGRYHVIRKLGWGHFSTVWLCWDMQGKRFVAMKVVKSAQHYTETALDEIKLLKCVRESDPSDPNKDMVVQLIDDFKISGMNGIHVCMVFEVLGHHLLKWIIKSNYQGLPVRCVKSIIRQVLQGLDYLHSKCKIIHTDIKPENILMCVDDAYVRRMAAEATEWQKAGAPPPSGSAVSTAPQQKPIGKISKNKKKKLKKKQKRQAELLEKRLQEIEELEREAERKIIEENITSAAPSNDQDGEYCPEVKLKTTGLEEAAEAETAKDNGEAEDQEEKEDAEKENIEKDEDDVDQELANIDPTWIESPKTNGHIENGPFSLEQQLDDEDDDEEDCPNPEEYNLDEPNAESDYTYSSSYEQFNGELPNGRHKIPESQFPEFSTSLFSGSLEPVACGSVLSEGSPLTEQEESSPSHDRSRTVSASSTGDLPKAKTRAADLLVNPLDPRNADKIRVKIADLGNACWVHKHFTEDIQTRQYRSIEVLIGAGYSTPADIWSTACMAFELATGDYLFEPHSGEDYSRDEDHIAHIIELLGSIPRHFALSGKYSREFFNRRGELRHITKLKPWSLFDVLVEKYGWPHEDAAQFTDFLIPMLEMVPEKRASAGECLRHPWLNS

With `CN(C(=O)CN1CCOCC1)c1ccc2sc3c(-c4cccc5c(=O)cc(N6CC7CCC(C6)O7)oc45)cccc3c2c1` [NU5455] the inhibition at 1 µM was 3.9%.
